Experimental data: US20090181972A1, “Novel Inhibitors of Cysteine Proteases, the Pharmaceutical Compositions Thereof and their Therapeutic Applications” (priority 2005, published 2009)

Legend:
USP7 = molecular target: T1, USP7 (Homo sapiens, UniProt Q93009); assay: USP7 activity assay; format: biochemical; details: 400 nM Ub-AMC, 152 pM enzyme; pre-incubated 30 minutes at 25° C., 60 minutes at 37° C.; sigmoidal fit; read-out: USP 7
T1 construct: His tag (pFastBac-HT vector) (N); made in house; host or cells: Sf9 or High Five insect cells (baculovirus)
From the text: The cDNA encoding USP7 was obtained by PCR amplification from placenta mRNA. USP7 cDNA was subcloned by PCR into a baculovirus expression vector (pFastBac-HT; Invitrogen). A cDNA encoding a mutated USP7 was generated by mutagenic PCR. The corresponding protein encodes a cysteine to alanine substitution at residue 223. The sequences were ascertained by sequencing of the entire open reading frame. Bacmids encoding USP7 were generated following DH10bac transposition. The corresponding bacmids were transfected into insect cells (Sf9). Viruses were recovered from culture supernatant and amplified twice. Insect cells (Sf9 or High Five; lnvitrogen) were infected for 72 hours. Total cell lysates were harvested and lyzed in lysis buffer (Tris HCl 50 mM pH 7.6; 0.75 % NP40; 500 mM NaCl; 10% glycerol; 1 mM DTT; 10 mM imidazole; Protease Inhibitor Cocktail; AEBSF 20 μg.ml^−1; Aprotinin 10 μg.ml^−1). Proteins were affinity purified on metal affinity resins (Talon Metal affinity resin; BD Biosciences). Bound materials were extensively washed in wash buffer (50 mM Sodium Phosphate pH 7.0; 300 mM NaCl; 10 mM imidazole; 0.5% Triton X-100; 10% glycerol) and eluted from the resin in 250 mM imidazole-containing wash buffer. Proteins were dialyzed in dialysis buffer (Tris HCl pH 7.6 20 mM; NaCl 200 mM; DTT 1 mM; EDTA 1 mM; 10% Glycerol). Proteins purifications were analyzed on 4-12% NuPAGE (Invitrogen).
USP7 was diluted in USP buffer (50 mM Tris HCl; 0.5 mM EDTA; 5 mM DTT; 0.01 % Triton X-100; Bovine Serum Albumin 0.05 mg.ml^−1 pH 7.6). Compounds stocks (100 mM) were stored at −20° C. in DMSO. Compounds were tested at the following final concentrations: 100 μM; 33.3 μM; 11.1 μM; 3.7 μM; 1.23 μM; 412 nM; 137 nM; 45.7 nM; 15.2 nM; 5 nM.
(§1) Reactions were performed as duplicates in Black LJL 96 well plates (HE microplates; Molecular Devices; 20 μl final reaction volume). The substrate concentration for USP7 was 400 nM Ub-AMC (Chem. Biol., 2003, 10, p. 837-846) (Boston Biochem). The concentrations of the enzyme (USP7) in specificity assays was 152 pM. The concentrations were determined in order to perform specificity assays under initial velocities at fixed substrate concentration. Compounds were pre-incubated with enzymes for 30 minutes at 25° C. Reactions were initiated by addition of substrate to the plates containing the enzymes (+/− compounds) diluted in assay buffer. Reactions were incubated for 60 minutes at 37° C. Reactions were stopped by adding acetic acid (100 mM final). Readings were performed on a Pherastar Fluorescent Reader (BMG). λ Emission 380 nm; λ Excitation=460 nm. Data (mean values +/− standard deviation) were analyzed as % of control (no compound) and plotted as percentage versus the Log of the compound concentration using GraphPad (Prism). Data were fitted to a sigmoidal model (variable slope).

USP5 = molecular target: T2, USP5 (Homo sapiens, UniProt P45974); assay: USP5 activity assay; format: biochemical; details: 400 nM Ub-AMC, 300 pM enzyme; pre-incubated 30 minutes at 25° C., 60 minutes at 37° C.; sigmoidal fit; read-out: USP 5
T2 sequence (P45974 1-858): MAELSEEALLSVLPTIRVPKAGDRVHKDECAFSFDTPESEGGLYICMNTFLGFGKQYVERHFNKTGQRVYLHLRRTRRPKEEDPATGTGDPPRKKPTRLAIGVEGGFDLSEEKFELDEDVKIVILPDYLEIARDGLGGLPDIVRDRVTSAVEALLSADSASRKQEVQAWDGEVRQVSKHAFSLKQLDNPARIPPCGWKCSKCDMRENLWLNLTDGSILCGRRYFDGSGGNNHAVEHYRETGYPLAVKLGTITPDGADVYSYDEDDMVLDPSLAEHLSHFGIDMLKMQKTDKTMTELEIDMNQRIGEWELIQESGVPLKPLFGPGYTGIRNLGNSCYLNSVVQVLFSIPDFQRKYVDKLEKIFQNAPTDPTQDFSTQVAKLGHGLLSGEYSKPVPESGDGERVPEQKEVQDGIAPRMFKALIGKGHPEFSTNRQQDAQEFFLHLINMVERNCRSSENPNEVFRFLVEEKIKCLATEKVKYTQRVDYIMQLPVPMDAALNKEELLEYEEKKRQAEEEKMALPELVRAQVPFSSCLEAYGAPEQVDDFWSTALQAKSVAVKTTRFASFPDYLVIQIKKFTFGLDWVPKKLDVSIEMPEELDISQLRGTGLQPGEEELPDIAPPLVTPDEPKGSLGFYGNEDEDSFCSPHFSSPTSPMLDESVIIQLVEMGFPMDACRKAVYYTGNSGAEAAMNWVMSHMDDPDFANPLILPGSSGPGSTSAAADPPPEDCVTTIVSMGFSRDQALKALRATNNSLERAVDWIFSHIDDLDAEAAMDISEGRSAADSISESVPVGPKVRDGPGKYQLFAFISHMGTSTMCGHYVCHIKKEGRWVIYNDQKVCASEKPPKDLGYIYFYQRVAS
Procedure: USP5 was diluted in USP buffer (50 mM Tris HCl; 0.5 mM EDTA; 5 mM DTT; 0.01% Triton X-100; Bovine Serum Albumin 0.05 mg.ml^−1 pH 7.6). Compounds stocks (100 mM) were stored at -20° C. in DMSO.
as §1, with “USP5” for “USP7”, “Ub-AMC” for “Ub-AMC (Chem. Biol., 2003, 10, p. 837-846)”, “(USP5)” for “(USP7)”, “300” for “152”

[1] = system: HCT116 colon cancer cells; assay: HCT116 cell viability and proliferation assay (MTS); format: cell-based; details: Homo sapiens, HCT-116, 72 hours incubation, mean of three independent experiments, read-out: HCT116 GI50 D3
Procedure: HCT116 colon cancer cells were obtained from ATCC (American Type Culture Collection), and maintained in Mc Coy's 5A medium containing 10% FBS, 3 mM glutamine and 1% penicillin/streptomycin. Cells were incubated at 37° C. in a humidified atmosphere containing 5% CO2.
(§2) Cell viability was assayed using the MTS technique in 96-well culture plates (CellTiter 96® Aqueous Non-Radioactive Cell Proliferation Assay, Promega) according to the manufacturer's instructions. MTS (3-(4,5-dimethyl-thiazol-2-yl)-5-(3-carboxymethoxyphenyl)-2-(4-sulfophenyl)-2H-tetra-zolium) is a MTT-derived tetrazolium that is reduced in metabolically active cells into a soluble, cell-permeant formazan. The amount of formazan, detected by its absorbance at 492 nm is proportional to the number of living, metabolically active cells.
(§3) 10^3 HCT116 cells were seeded per well. 24 hours later, the medium was changed and the cells treated in triplicate with the following concentrations of each compound: 10 μM-3.33 μM-1.11 μM-370 nM-123 nM-41 nM-14 nM and 5 nM. The compounds were diluted in 100% DMSO, whose final concentration on cells was kept at 0.5%.
(§4) Cells were incubated with the compounds for 72 hours, and their viability then assayed by the addition of MTS for 2 hours. Absorbance at 492 nm was measured directly from the 96-well culture plates. G150 (Growth Inhibition 50) concentrations for each compound were calculated using a sigmoidal variable slope fit (Prism 4.0, Graphpad Softwares). Values represent mean of three independent experiments.

[2] = system: PC-3 prostate cancer cells; assay: PC3 cell viability and proliferation assay (MTS); format: cell-based; details: Homo sapiens, PC-3, 72 hours incubation, mean of three independent experiments, read-out: PC3 GI50 D3
Procedure: PC-3 prostate cancer cells were obtained from ATCC, and maintained in F-12K medium containing 7% FBS and 1% penicillin/streptomycin. Cells were incubated at 37° C. in a humidified atmosphere containing 5% CO2.
as §2, with “(3-(4,5-dimethyl-thiazol-2-yl)-5-(3-carboxymethoxyphenyl)-2-(4-sulfophenyl)-2H-tetrazolium)” for “(3-(4,5-dimethyl-thiazol-2-yl)-5-(3-carboxymethoxyphenyl)-2-(4-sulfophenyl)-2H-tetra-zolium)”
as §3, with “2×10^3 PC3” for “10^3 HCT116”
as §4, with “GI50” for “G150”

T1 sequence (Q93009 whole entry): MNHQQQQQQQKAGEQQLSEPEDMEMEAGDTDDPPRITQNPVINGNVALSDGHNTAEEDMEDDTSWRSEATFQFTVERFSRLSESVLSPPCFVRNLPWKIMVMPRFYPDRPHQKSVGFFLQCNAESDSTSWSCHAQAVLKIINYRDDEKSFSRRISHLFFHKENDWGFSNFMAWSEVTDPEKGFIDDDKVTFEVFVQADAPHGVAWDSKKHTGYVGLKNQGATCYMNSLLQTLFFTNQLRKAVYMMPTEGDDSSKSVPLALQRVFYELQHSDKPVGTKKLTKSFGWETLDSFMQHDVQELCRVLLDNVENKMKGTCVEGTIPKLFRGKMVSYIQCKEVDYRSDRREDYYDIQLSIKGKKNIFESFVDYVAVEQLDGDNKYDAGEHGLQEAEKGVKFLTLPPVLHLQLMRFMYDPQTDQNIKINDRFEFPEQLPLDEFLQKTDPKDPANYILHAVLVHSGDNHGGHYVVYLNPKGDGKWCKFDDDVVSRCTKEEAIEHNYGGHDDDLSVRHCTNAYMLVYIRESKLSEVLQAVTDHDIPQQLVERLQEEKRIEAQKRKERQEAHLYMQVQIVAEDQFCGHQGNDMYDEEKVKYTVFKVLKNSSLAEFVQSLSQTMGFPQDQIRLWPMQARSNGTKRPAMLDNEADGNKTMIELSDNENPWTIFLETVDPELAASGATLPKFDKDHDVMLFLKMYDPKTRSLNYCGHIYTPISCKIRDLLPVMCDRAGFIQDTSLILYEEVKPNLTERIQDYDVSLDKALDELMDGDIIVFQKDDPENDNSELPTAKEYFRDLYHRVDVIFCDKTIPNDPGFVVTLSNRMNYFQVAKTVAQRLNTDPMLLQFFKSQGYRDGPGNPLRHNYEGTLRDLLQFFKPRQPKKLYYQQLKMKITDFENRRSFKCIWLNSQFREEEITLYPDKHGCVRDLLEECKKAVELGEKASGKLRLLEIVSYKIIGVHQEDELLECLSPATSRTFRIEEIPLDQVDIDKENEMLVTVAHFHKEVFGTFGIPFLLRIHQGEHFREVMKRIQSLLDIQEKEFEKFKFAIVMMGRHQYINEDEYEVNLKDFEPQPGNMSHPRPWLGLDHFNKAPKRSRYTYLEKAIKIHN

Compound	IC50 (USP7)	IC50 (USP5)	GI50 [1]	GI50 [2]
O=C1c2ccccc2-c2nc3nn(Cc4ccccc4)nc3nc21 [Example 4b, 2-Benzyl-2H-1,2,3,4,10-pentaaza-cyclopenta[b]fluoren-9-one]	> 100000 nM	> 100000 nM		
O=C1c2ccccc2-c2nc3nnc(C4CC4)n3nc21 [Example 1j/A, 1-Cyclopropyl-2,3,4,10,10a-pentaaza-cyclopenta[b]fluoren-9-one]		3100 nM		
O=C1c2ccccc2-c2nn3c(Cc4ccccc4)nnc3nc21 [Example 1k/B, 3-Benzyl-1,2,3a,4,10-pentaaza-cyclopenta[b]fluoren-9-one]		206 nM	149 nM	235 nM
O=C1c2ccccc2-c2nn3c(C4CC4)nnc3nc21 [Example 1j/B, 3-Cyclopropyl-1,2,3a,4,10-pentaaza-cyclopenta[b]fluoren-9-one]		317 nM	160 nM	107 nM
